The results in this text go back to ChEMBL document CHEMBL1143399, “A small-molecule nitroimidazopyran drug candidate for the treatment of tuberculosis” (Nature, 2000).

Holding throughout (assay type): functional, organism-based
Common to all, as to settings: variant bovis BCG

Assay [1] concerns Mycobacterium tuberculosis. Put plainly: Inhibition of protein synthesis in log phase Mycobacterium bovis BCG assessed as [35S] incorporation after 3 hrs.
Assay [2] deals with Mycobacterium tuberculosis. Briefly: Inhibition of lipid synthesis in log phase Mycobacterium bovis BCG assessed as [14C] acetate incorporation after 3 hrs by chromatography.
Assay [3] has as its system Mycobacterium tuberculosis. Briefly: Inhibition of nucleic acid synthesis in Mycobacterium bovis BCG.

The structures appear in SMILES notation. Calls of active or inactive are those of the source. No cut-off for these calls is given here.

For `O=[N+]([O-])c1cn2c(n1)OC[C@@H](OCc1ccc(OC(F)(F)F)cc1)C2` [PRETOMANID], in assay [1], the outcome was Active. The result in assay [2] and in assay [3] was inactive.
